Results: ChEMBL document CHEMBL1921749, “5-Lipoxygenase-activating protein (FLAP) inhibitors. Part 4: development of 3-[3-tert-butylsulfanyl-1-[4-(6-ethoxypyridin-3-yl)benzyl]-5-(5-methylpyridin-2-ylmethoxy)-1H-indol-2-yl]-2,2-dimethylpropionic acid (AM803), a potent, oral, once daily FLAP inhibitor” (J Med Chem, 2011)
pIC50: −log10 of the molar value.

Columns and labels:
Cytochrome P450 1A2 = molecular target: T1, Cytochrome P450 1A2 (Homo sapiens, UniProt P05177); assay: Inhibition of human CYP1A2; format: ADME
T1 sequence (P05177 whole entry): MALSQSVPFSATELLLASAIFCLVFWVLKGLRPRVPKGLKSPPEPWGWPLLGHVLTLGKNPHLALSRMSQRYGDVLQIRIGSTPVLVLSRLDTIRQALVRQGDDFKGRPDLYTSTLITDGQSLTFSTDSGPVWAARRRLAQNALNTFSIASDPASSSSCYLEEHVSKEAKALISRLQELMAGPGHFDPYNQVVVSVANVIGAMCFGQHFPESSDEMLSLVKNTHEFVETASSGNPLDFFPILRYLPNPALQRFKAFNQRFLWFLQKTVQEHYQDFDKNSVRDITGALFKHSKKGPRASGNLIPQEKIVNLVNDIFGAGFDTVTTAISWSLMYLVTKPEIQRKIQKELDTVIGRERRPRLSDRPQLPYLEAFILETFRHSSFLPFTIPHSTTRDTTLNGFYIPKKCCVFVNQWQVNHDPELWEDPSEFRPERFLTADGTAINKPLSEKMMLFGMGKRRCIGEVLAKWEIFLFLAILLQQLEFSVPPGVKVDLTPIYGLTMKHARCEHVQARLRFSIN

Rattus norvegicus [1] = assay: Antiinflammatory activity in rat assessed as inhibition of calcium ionophore A23187-induced LTB4 production in bronchoalveolar lavage fluid at 3 mg/kg, po administered 16 hrs prior to A23187 challenge; format: functional, Lung; set-up: scale not given: the % may be the effect or the level left
[2] = Oral bioavailability in Beagle dog at 5 mg/kg; format: ADME, organism-based, Canis lupus familiaris; conditions: in vivo
[3] = Plasma protein binding in human; format: ADME, cell-free; conditions: read-out: PPB (converted)
[4] = Clearance in Beagle dog at 2 mg/kg, iv; format: ADME, organism-based, Canis lupus familiaris; set-up: dose 2 mg/kg, route intravenous; conditions: in vivo
Cytochrome P450 2C19 = Cytochrome P450 2C19 (Homo sapiens, UniProt P33261); assay: Inhibition of human CYP2C19; format: ADME
Cytochrome P450 2C19, sequence (P33261 whole entry): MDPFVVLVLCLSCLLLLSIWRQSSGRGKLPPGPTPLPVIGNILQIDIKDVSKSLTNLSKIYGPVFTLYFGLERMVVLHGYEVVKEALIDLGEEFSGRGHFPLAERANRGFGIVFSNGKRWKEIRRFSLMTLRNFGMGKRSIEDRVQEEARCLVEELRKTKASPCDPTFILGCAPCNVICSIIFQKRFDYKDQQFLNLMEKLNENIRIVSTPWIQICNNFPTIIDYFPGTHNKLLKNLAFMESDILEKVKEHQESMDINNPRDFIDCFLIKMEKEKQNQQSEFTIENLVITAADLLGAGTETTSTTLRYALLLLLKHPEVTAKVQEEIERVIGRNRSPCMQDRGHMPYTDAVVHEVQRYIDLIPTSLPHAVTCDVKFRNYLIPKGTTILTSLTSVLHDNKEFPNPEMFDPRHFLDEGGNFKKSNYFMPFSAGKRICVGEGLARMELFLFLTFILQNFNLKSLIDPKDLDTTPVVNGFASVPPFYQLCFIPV

[5] = molecular target: T2, Arachidonate 5-lipoxygenase-activating protein (Homo sapiens, UniProt P20292); assay: Inhibition of FLAP in human whole blood assessed as inhibition of calcium ionophore A23187-induced LTB4 production preincubated for 5 hrs by ELISA
T2 sequence (P20292 whole entry): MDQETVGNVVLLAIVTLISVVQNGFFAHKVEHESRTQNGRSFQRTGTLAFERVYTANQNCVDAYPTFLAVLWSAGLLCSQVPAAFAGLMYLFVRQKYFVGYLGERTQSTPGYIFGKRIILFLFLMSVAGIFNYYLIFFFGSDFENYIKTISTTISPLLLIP

[6] = molecular target: T2, Arachidonate 5-lipoxygenase-activating protein; assay: Inhibition of FLAP in human whole blood assessed as inhibition of calcium ionophore A23187-induced LTB4 production preincubated for 15 mins by ELISA
Cytochrome P450 3A4 = Cytochrome P450 3A4 (Homo sapiens, UniProt P08684); assay: Time-dependent inhibition of CYP3A4 at 10 uM; format: ADME
Cytochrome P450 3A4, sequence (P08684 whole entry): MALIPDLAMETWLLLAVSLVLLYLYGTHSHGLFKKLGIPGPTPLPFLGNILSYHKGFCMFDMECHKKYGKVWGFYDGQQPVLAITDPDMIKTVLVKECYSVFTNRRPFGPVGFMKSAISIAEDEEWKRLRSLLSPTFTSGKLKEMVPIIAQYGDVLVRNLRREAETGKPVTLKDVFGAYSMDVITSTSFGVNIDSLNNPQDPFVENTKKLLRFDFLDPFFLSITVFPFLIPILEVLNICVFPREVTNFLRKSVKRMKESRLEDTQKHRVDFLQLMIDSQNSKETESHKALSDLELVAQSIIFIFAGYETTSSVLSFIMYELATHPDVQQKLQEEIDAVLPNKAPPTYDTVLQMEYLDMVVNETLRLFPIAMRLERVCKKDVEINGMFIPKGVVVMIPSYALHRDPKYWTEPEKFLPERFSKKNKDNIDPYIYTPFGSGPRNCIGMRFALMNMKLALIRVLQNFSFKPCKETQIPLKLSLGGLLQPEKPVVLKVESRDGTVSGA

Leukotriene C4 synthase = molecular target: T3, Leukotriene C4 synthase (Homo sapiens, UniProt Q16873); assay: Inhibition of LTC4 synthase
T3 sequence (Q16873 whole entry): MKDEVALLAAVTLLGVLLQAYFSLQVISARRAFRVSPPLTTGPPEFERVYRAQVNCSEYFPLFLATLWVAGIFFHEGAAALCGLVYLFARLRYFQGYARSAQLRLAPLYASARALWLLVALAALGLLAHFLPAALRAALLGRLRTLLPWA

[7] = Plasma concentration in rat at 3 mg/kg, po after 16 hrs; format: ADME, organism-based; set-up: dose 3 mg/kg, route oral
[8] = molecular target: T4, Arachidonate 5-lipoxygenase-activating protein (Rattus norvegicus, UniProt P20291); assay: Inhibition of FLAP in rat whole blood assessed as inhibition of calcium ionophore A23187-induced LTB4 production preincubated for 4 hrs by ELISA; format: tissue-based
T4 sequence (P20291 whole entry): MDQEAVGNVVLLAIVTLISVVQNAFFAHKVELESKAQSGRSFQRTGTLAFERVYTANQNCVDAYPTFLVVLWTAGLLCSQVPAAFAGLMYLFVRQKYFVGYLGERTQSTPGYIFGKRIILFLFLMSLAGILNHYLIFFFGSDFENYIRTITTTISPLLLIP

[9] = molecular target: T4, Arachidonate 5-lipoxygenase-activating protein; assay: Inhibition of FLAP in rat whole blood assessed as inhibition of calcium ionophore A23187-induced LTB4 production preincubated for 15 mins by ELISA; format: tissue-based
[10] = Plasma concentration in rat at 3 mg/kg, po after 4 hrs; format: ADME, organism-based; set-up: dose 3 mg/kg, route oral
[11] = molecular target: T2, Arachidonate 5-lipoxygenase-activating protein; assay: Inhibition of FLAP in human peripheral leukocytes assessed as inhibition of calcium ionophore A23187-induced LTB4 production after 1 hr by ELISA in absence of human serum albumin; format: cell-based
Rattus norvegicus [12] = assay: Antiinflammatory activity in rat assessed as inhibition of calcium ionophore A23187-induced LTB4 production in bronchoalveolar lavage fluid at 3 mg/kg, po administered 4 hrs prior to A23187 challenge; format: functional, Lung; set-up: scale not given: the % may be the effect or the level left
[13] = molecular target: T5, Leukotriene A-4 hydrolase (Homo sapiens, UniProt P09960); assay: Inhibition of LTA4 […]
T5 sequence (P09960 whole entry): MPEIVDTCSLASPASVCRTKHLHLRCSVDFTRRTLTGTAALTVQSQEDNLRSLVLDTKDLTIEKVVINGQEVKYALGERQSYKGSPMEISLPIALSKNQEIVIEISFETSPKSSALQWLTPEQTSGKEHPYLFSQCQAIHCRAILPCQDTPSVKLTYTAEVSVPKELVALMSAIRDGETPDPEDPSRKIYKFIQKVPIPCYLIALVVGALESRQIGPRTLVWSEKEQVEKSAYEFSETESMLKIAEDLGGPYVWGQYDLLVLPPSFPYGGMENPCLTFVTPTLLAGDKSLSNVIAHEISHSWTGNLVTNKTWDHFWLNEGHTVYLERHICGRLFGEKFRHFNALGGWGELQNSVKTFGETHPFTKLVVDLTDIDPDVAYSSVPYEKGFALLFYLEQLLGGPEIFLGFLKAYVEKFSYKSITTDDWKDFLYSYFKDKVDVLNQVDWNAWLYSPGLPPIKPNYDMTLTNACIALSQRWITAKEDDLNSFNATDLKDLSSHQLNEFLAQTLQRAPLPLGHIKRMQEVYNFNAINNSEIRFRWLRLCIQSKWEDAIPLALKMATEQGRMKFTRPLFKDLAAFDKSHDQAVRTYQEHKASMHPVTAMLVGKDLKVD

[14] = Volume of distribution in Beagle dog at 2 mg/kg, iv; format: ADME, organism-based, Canis lupus familiaris; set-up: dose 2 mg/kg, route intravenous; conditions: in vivo
[15] = Plasma protein binding in rat; format: ADME, cell-free; conditions: read-out: PPB (converted)
Cytochrome P450 2C9 = Cytochrome P450 2C9 (Homo sapiens, UniProt P11712); assay: Inhibition of human CYP2C9; format: ADME
Cytochrome P450 2C9, sequence (P11712 whole entry): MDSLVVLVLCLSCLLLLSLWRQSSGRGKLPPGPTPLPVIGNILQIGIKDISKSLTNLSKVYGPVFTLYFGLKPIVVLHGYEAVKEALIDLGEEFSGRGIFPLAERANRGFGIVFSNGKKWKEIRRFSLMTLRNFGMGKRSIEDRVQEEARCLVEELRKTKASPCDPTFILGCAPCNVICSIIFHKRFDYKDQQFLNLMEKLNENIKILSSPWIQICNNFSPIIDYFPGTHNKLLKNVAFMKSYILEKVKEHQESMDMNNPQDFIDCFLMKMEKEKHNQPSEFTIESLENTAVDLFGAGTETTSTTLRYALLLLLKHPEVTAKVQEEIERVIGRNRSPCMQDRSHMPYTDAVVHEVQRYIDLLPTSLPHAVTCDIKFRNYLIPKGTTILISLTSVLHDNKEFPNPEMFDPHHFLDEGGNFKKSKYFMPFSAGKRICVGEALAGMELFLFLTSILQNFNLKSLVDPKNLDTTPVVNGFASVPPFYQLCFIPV

Plasma = assay: Plasma protein binding in dog; format: ADME, cell-free, Canis lupus familiaris
Rattus norvegicus [16] = assay: Antiinflammatory activity in rat assessed as inhibition of calcium ionophore A23187-induced CysLT production in bronchoalveolar lavage fluid at 3 mg/kg, po administered 4 hrs prior to A23187 challenge; format: functional, Lung; set-up: scale not given: the % may be the effect or the level left

pIC50 (Cytochrome P450 1A2): < 4.40
bioavailability [2]: 51%
fraction unbound [3]: 0.005
clearance [4]: 0.6 mL/min/kg
pIC50 (Cytochrome P450 2C19): < 4.40
pIC50 [5]: 7.12
pIC50 [6]: 6.30
TDI (Cytochrome P450 3A4): Not Active
pIC50 (Leukotriene C4 synthase): 4.44
concentration at 16 h [7]: 3 nM
pIC50 [8]: 7.80
pIC50 [9]: 6.62
concentration at 4 h [10]: 1000 nM
pIC50 [11]: 9.00
pIC50 [13]: < 4.00
Vd [14]: 0.2 L/kg
fraction unbound [15]: 0.002
pIC50 (Cytochrome P450 2C9): < 4.30
PPB (Plasma): 99.7%
Structure (SMILES): CCOc1ccc(-c2ccc(Cn3c(CC(C)(C)C(=O)O)c(SC(C)(C)C)c4cc(OCc5ccc(C)cn5)ccc43)cc2)cn1 [FIBOFLAPON]
Activity (Rattus norvegicus [1]): 86%
Activity (Rattus norvegicus [12]): 100%
Activity (Rattus norvegicus [16]): 80%
